Test results published in paper PMC7170360 (Drug Delivery, 2020).

Experiments:
Hep-G2 cells [1] = assay: MTT cytotoxicity assay; assay type: cell-based; conditions: Homo sapiens
Protocol: The in vitro cytotoxicity of HES-10-HCPT-SS-Ly micelles was evaluated by MTT assay and Hep-G2 cell lines were used as model object. The Hep-G2 cells were seeded by using 96-well plates and the cell density was 6 × 10^3. The temperature of cell culture was 37 °C and the concentration of CO2 was 5%. The culture medium was removed after 24 h and the micelle solutions with different concentrations are added. The incubation time was 48 h and 72 h respectively to fully evaluate the relationship between cytotoxicity and culture time. Then, 50 μL MTT (0.25 mg/mL) was added to each well and the supernatant was removed. The precipitated formazan crystals were dissolved by DMSO solution after 4 h. The OD values were determined by using an ELIASA reader and the detection wavelength was 492 nm. In addition, cellular uptake of HES-10-HCPT-SS-Ly micelles was also assessed in Hep-G2 cell line. Similarly, the culture medium was removed and different 10-HCPT preparations were added with concentrations of 1.0 mg/mL 24 h after incubation. The 96-well plate was incubated at room temperature on a plate shaker for 24 h, the cells were then washed three times with PBS solution. […] Then, the concentration of 10-HCPT in Hep-G2 cells was determined by HPLC–MS/MS method.

[2] = Rat pharmacokinetics after intravenous administration; assay type: in vivo, Sprague-Dawley rats; conditions: Sprague-Dawley, plasma, 1.5 mg/kg
Protocol: The pharmacokinetics of HES-10-HCPT-SS-Ly micelles and 10-HCPT injection in Sprague-Dawley rats were evaluated in this study (n = 6). Briefly, HES-10-HCPT-SS-Ly micelles and 10-HCPT injection were injected, respectively. The dose of 10-HCPT was 1.5 mg/kg in both groups. 0.2 mL blood was collected 5 min, 10 min, 15 min, 30 min, 60 min, 2 h, 4 h, 6 h, 8 h, 12 h, 24 h, 48 h, and 72 h after administration. The concentration of 10-HCPT in plasma was determined by HPLC–MS/MS method.

Hep-G2 cells [3] = assay: Cellular uptake test (10-HCPT in cells by HPLC-MS/MS); assay type: cell-based, human; conditions: pH 7.4, 72 h incubation, compared with HES-10-HCPT micelles and HES-10-HCPT-SS-Ly micelles
Protocol: The in vitro cytotoxicity of HES-10-HCPT-SS-Ly micelles was evaluated by MTT assay and Hep-G2 cell lines were used as model object. The Hep-G2 cells were seeded by using 96-well plates and the cell density was 6 × 10^3. The temperature of cell culture was 37 °C and the concentration of CO2 was 5%. The culture medium was removed after 24 h and the micelle solutions with different concentrations are added. The incubation time was 48 h and 72 h respectively to fully evaluate the relationship between cytotoxicity and culture time. Then, 50 μL MTT (0.25 mg/mL) was added to each well and the supernatant was removed. The precipitated formazan crystals were dissolved by DMSO solution after 4 h. The OD values were determined by using an ELIASA reader and the detection wavelength was 492 nm. In addition, cellular uptake of HES-10-HCPT-SS-Ly micelles was also assessed in Hep-G2 cell line. Similarly, the culture medium was removed and different 10-HCPT preparations were added with concentrations of 1.0 mg/mL 24 h after incubation. […] Briefly, cells were collected and lysed using a French Pressure Cell, the lysate was clarified by centrifugation, and the supernatant liquid was processed by applying liquid–liquid extraction. Then, the concentration of 10-HCPT in Hep-G2 cells was determined by HPLC–MS/MS method.

CC[C@@]1(O)C(=O)OCc2c1cc1n(c2=O)Cc2cc3cc(O)ccc3nc2-1 [free 10-HCPT, 10-Hydroxy camptothecin]
IC50 (Hep-G2 cells [1]; HepG2, culture medium pH 7.4, MTT): 5.1 µM | IC50 (Hep-G2 cells [1]; HepG2, pH 5.5, MTT): 4.3 µM | half-life [2]: 10 min | cellular uptake by Hep G2 cells (Hep-G2 cells [3]): more easily taken up
